This note sets out measurements from patent EP0097127A2, “Cephalosporin derivatives, process for their preparation and pharmaceutical compositions containing them” (CIBA-GEIGY AG, priority 1982, dated 1983).

Each structure is given as a SMILES string. Some results are limits rather than exact numbers.

Experiment in all cases: Chemotherapeutic activity against systemic infection in mice
Assay type in all cases: in vivo

One test concerns Escherichia coli 205. The settings on record: systemic infection in mice with Escherichia coli 205; oral application. Here is the method: (§1) Die Verbindungen der Formel I, worin Am eine freie Aminogruppe ist und ihre pharmazeutisch verwendbaren, nichttoxischen Salze sind wertvolle, antibiotisch wirksame Substanzen, die insbesondere als antibakterielle Antibiotika verwendet werden können. Beispielsweise haben sie in vivo bei oraler Applikation an der Maus bei systemischen Infektionen mit Staphylococcus aureus eine ED50 von etwa 70-100 mg/kg, und bei systemischen Infektionen mit Enterobakterien, z.B. Escherichia coli, Klebsiella pneumonia, Proteus mirabilis oder Proteus morganii eine ED50 von etwa 0.35 bis 100 mg/kg.
(§2) Chemotherapeutische Wirksamkeit gegen systemische Infektionen in Mäusen.

A further test has as its system Escherichia coli 2018. Conditions: systemic infection in mice with Escherichia coli 2018; oral application. Here is the method: as §1, §2
Test [1] relates to Staphylococcus aureus 10B. The settings on record: systemic infection in mice with Staphylococcus aureus 10B; oral application. Here is the method:
as §1, §2

The next test has as its system Proteus morganii. The settings on record: Morganella morganii; systemic infection in mice with Proteus morganii; oral application. Here is the method: as §1, §2
The next test has as its system Proteus mirabilis. The settings on record: systemic infection in mice with Proteus mirabilis; oral application. On the procedure: as §1, §2
The test system of the next test is Klebsiella pneumonia. Conditions: Klebsiella pneumoniae; systemic infection in mice with Klebsiella pneumonia; oral application. Here is the method:
as §1, §2

The ED50 is the dose at which the effect has come halfway, by size or by number of responders. On to `CO/N=C(\C(=O)N[C@@H]1C(=O)N2C(C(=O)OCC(=O)O[C@@H]3C[C@@H]4CC[C@@]3(C)C4(C)C)=CCS[C@H]12)c1csc(N)n1` [Testverbindung 1, Ceftizoxime-(ℓ)-bornyloxycarbonylmethylester], for which the ED50 turned out to be 1 mg/kg in the test on Escherichia coli 205; 0.35 mg/kg with Escherichia coli 2018; 70 mg/kg in test [1]; 30 mg/kg in the test with Proteus morganii; 10 mg/kg in the test with Proteus mirabilis; 6 mg/kg with Klebsiella pneumonia.
For the compound `CO/N=C(\C(=O)N[C@@H]1C(=O)N2C(C(=O)OCC(=O)OC3CCCCC3)=CCS[C@H]12)c1csc(N)n1` [Testverbindung 2, Ceftizoxime-cyclohexyloxycarbonylmethylester], the ED50 in the test on Escherichia coli 205 is 0.5 to 5 mg/kg; in the test on Escherichia coli 2018, 0.4 mg/kg; in test [1], > 100 mg/kg; with Proteus morganii, > 100 mg/kg; with Proteus mirabilis, > 30 mg/kg; in the test on Klebsiella pneumonia it was 7 mg/kg.
As for `CO/N=C(\C(=O)N[C@@H]1C(=O)N2C(C(=O)OCC(=O)O[C@@H]3C[C@H](C)CC[C@H]3C(C)C)=CCS[C@H]12)c1csc(N)n1` [Testverbindung 3, Ceftizoxime-(9)-menthyloxycarbonylmethylester], the ED50 was 4 mg/kg with Escherichia coli 205; 1.5 mg/kg in the test on Escherichia coli 2018; 30 to 100 mg/kg in test [1]; 100 mg/kg with Proteus morganii; ≥ 30 mg/kg in the test on Proteus mirabilis; 4 mg/kg with Klebsiella pneumonia.
